Columns and labels:
[1] = test system: cancer cell lines (GDSC); assay: Genomics of Drug Sensitivity in Cancer (GDSC) data analysis, IC50 of bortezomib and MG132 vs 19S expression / sigma score; type: cell-based, human; settings: GDSC database
Source text: In some aspects, whether a cancer cell is considered resistant or sensitive to a particular agent may be determined by comparing the IC50 of the agent for the cancer cell with the IC50 of the agent as measured for each cell line in a panel of diverse cancer cell lines. Cancer cells for which the agent has an IC50 in the 10th percentile of IC50 values determined for the agent on a diverse panel of cancer cell lines may be considered sensitive, while cancer cells for which the agent has an IC50 in the 90th percentile of IC50 values determined for the agent on a diverse panel of cancer cell lines may be considered resistant to the agent.
We asked if this might correlate with changes in 19S subunit expression. We analyzed the Genomics of Drug Sensitivity in Cancer (GDSC) database, a public resource of transcriptional data and drug responsiveness collected from a spectrum of human cancer cell lines with diverse tissue origins and diverse oncogenic lesions (Garnett et al., 2012). […]
Further details of methods used in GDSC dataset analysis: Gene expression and drug sensitivity data was downloaded from the World Wide Web at subdomain cancerrxgene.org. […] For each proteasomal subunit gene, a-score was calculated for each cell line. […] P-values were calculated by t-test, comparing the logEC50s between the 3 sigma and not 3 sigma.

[2] = test system: HepG2 cells; assay: RNA-seq gene expression profiling, PSMD2 knockdown and control cells; type: cell-based, human; settings: control cells
Experimental: FIGS. 3A-3E: Inhibition of bortezomib-mediated transcriptional responses in PSMD2 knockdown cells. RNA-seq gene expression profiling was conducted on cells that harbor two different shRNAs targeting PSMD2 (PSMD2-1, PSMD2-2) and on control cells (shLacZ). The effects of reducing PSMD2 levels on gene expression were highly correlated in both basal conditions (Pearson's r=0.99) and following bortezomib treatment (Pearson's r=0.94). […] Enrichment was calculated for the indicated gene sets and is presented as a normalized enrichment score (NES). […]
Gene expression analysis—RNA was extracted from triplicate samples and RNA libraries were prepared for sequencing by NEBNext Ultra RNA Library Prep Kit for Illumina (New England BioLabs, Ipswich, Mass.), including the removal of large and small RNA, synthesis of cDNA, and construction of cDNA libraries. […] Libraries were sequenced using Illumina HiSeq 2500, with paired-end 100 bp reads, Paired-end reads were aligned to UCSC human transcriptome 19 (hg19) using TopHat (Bowtie v2.0.9). Alignment quality and read distribute was assessed via SAMtools (v0.1.19) (Li et al., 2009). […] RNA sequencing data have been deposited in the NCBI Sequence Read Archive under accession number: PRJNA281613, […]

[3] = test system: IMR32 and Kelly cells; assay: Viability of IMR32 vs Kelly neuroblastoma cells; type: cell-based, human
Experimental: FIGS. 24A-24C: (FIG. 24A) Plot showing the effect of various concentrations of ABT-263 on IMR32 and Kelly cells. (FIG. 24B) Plot showing effect of various concentrations of disulfiram on IMR32 and Kelly cells. (FIG. 24C) Plot showing effect of various concentrations of elesclomol on IMR32 and Kelly cells. Fold viability refers to the number of viable cells of the indicated type after culture in the presence of the indicated test compound for 72 hours divided by the number of viable cells of that type after culture in the absence of the test compound.
FIG. 28: The relative viability was examined in IMR32 cells and Kelly cells after addition of indicated concentrations of the different BCL2 family inhibitors. ABT-263 (BCL2, BCLXL, MCL1) (upper left panel), ABT-199 (BCL2) (upper right panel), WEHI-539 (BCLXL) (lower left panel), A-1210477 (MCL1) (lower right panel). The relative effect on cell growth was analyzed 72 hours after addition of drugs.

[4] = test system: MM.1S tumors; assay: MM.1S luciferase multiple myeloma model in SCID mice; type: in vivo, mouse; settings: elesclomol 28mg/kg with bortezomib 0.25mg/kg
Experimental: FIGS. 54A-54D: Inhibiting the glycolysis-OXPHOS shift with elesclomol is beneficial to proteasome inhibitor treatment in a mouse model of multiple myeloma. (FIG. 54A) provides a schematic of the experimental outline. Mice were injected with MM .'S luciferase expressing cells. Upon tumor formation as judged by BLI signal intensity, treatment with elesclomol (28mg/kg), bortezomib (0.25mg/kg) or the combination (Combo) was initiated (day 0). At day 15, elesclomol was added to the treatment of one of the aroups that had received only bortezomib from day 0 to day 15 (combo-delayed group). […] N=5 per aroup. *** p<0.001.
FIGS. 60A-60B: Inhibiting the glycolysis-OXPHOS shift, with elesclomol is beneficial to proteasome inhibitor treatment in a mouse model of multiple myeloma.

[5] = test system: MCF7, HEK293 and T47D cells; assay: Viability of cells grown in glucose (glycolytic) vs galactose (Hi-OXPHOS); type: cell-based, human
Experimental: FIGS. 40A-40D: Cancer cell metabolism alters sensitivity to elesclomol.
FIGS. 41A-41B: Cancer cell metabolism alters sensitivity to elesclomol.
FIGS. 51A-51D: Elesclomol preferentially targets cells in the Hi-OXPHOS state. […] The relative cell growth (color coded) was analyzed 72 hours post compound addition. Plotted are the mean SD of at least three replicas and the calculated EC50s (FIGS. 51B-51C). […] Reactive groups are indicated with a colored circle.
FIGS. 57A-57C: Elesclomol preferentially targets cells in the Hi-OXPHOS state. […] Analogs named compound 1-6. […] Plotted are the mean SD of at least three replicas and the calculated EC50s (FIG. 57A and FIG. 57C).

[6] = target: T1, cysteine desulfurase (Homo sapiens, UniProt Q9Y697); assay: Cysteine desulfurase activity assay; type: biochemical
T1 construct: made in house
Experimental: The in vitro Fe—S cluster assembly was carried out with reduced FDX1 as the reducing agent and detected by following the increase of absorbance at 456 tun following the addition of either of 5× (green) or 10× (yellow, both relative to FDX1) compound-1. […] Fe—S formation was monitored by following the increase of absorbance at 456 nm. […] Cysteine desulfurase activity assay carried out with the indicated concentrations of elesclomol.

T1 sequence (Q9Y697 56-457): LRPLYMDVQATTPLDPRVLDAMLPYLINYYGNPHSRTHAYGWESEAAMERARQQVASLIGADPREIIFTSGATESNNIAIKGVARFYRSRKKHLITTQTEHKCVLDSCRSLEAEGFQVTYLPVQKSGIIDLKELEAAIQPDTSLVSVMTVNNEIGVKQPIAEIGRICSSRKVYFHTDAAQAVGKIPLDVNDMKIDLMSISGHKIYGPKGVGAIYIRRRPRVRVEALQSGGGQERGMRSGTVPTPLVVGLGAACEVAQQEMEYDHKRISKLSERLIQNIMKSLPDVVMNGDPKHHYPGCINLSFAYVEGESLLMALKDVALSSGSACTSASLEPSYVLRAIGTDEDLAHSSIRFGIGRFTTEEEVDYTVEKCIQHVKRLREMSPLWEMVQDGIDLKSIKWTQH
T1 sequence (Q9HD34 whole entry, further chain): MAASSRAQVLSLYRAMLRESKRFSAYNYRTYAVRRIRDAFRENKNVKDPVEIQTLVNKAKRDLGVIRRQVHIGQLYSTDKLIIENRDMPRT
T1 sequence (P0A6A8 2-78, further chain): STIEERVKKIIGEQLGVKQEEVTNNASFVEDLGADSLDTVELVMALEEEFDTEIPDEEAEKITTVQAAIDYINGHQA

Compound	average IC50 value in 3-Sigma cell lines vs all other lines [1]	transcriptional response [2]	resistance of IMR32 cells compared to Kelly cells [3]	effect on proteasome inhibitor treatment in a mouse model of multiple myeloma [4]	activity against cells in the HI-OXPHOS state [5]	toxicity when grown in the presence of Galactose [5]	sensitivity of cells utilizing mitochondria metabolism vs glycolytic cells ([5]; MCF7 and HEK293 cells)	activity of cysteine desulfurase [6]
CC(C)C[C@H](NC(=O)[C@H](Cc1ccccc1)NC(=O)c1cnccn1)B(O)O [bortezomib]	considerably higher	sharp increase in stress-response transcripts	increased resistance	–	–	–	–	–
CN(NC(=O)CC(=O)NN(C)C(=S)c1ccccc1)C(=S)c1ccccc1 [elesclomol]	–	–	–	beneficial	preferential activity	toxicity is enhanced	much more sensitive	does not inhibit

Reference: patent US20180353445A1, “METHODS AND COMPOSITIONS RELATING TO PROTEASOME INHIBITOR RESISTANCE” (Whitehead Institute for Biomedical Research, priority 2017, published 2018)
